Earlier results in patent US20070213409A1, “USE OF PREPARATIONS FOR SKIN ENZYME PROTECTION” (BEIERSDORF AG, priority 2005, published 2007).
Counter-ions that a name gives are not always drawn.

Legend:
[1] = system: stratum corneum chymotryptic enzyme (SCCE); conditions: competitive inhibition; associated with reduced desquamation
[2] = system: stratum corneum tryptic enzyme (SCTE); conditions: competitive inhibition; associated with reduced desquamation
[3] = system: desquamation (SCCE and SCTE serine proteases)

Row | Compound | effect on activity of SCCE [1] | effect on activity of SCTE [2] | skin flakes in vivo after topical application [3]
1 | CC(C)CCC[C@@H](C)[C@H]1CC[C@H]2[C@@H]3CC=C4C[C@@H](OS(=O)(=O)O)CC[C@]4(C)[C@H]3CC[C@]12C [cholesterol-3 sulfate] | reduces | reduces | –
2 | CC(=O)N[C@@H](CC(C)C)C(=O)N[C@@H](CC(C)C)C(=O)N[C@H](C=O)CCCNC(=N)N [leupeptin] | – | – | more skin flakes
3 | aprotinin | – | – | more skin flakes
